Patent US6262036A, “Method for inhibiting RNA translation using chimeric oligonucleoside compounds” (priority 2000, dated 2001)
[mp] = methylphosphonate linkage

Columns and labels:
[1] = system: complementary synthetic RNA target; experiment: Binding affinities of chimeric backbone oligomers to RNA (Example 35); design: KA (37° C.): unit not given here; details: for Tm: 1:1 molar ratio, 2.4 micromolar total strand, pH 7.2, 100 mM NaCl; for KA (37° C.): two-state model fit
Experimental: The following oligonucleotides were tested for their ability to hybridize to a complementary synthetic RNA target.
The bases shown in parentheses contain the backbone modification indicated in the middle set of brackets for each description, and likewise the terminal portions of the oligomers contain linkage structures as shown in the terminal sets of brackets. The PS/DE notation indicates an alternating array of bases beginning with a phosphorothioate linkage. For example, if there are five bases in a sequence denoted as PS/DE, they include three phosphorothioate (PS) bonds and two phosphodiester (DE) bonds.
Each oligomer was mixed with its complementary synthetic RNA target in a 1:1 molar ratio in a buffer system consisting of 20 mM sodium phosphate buffer (pH 7.2), 100 mM NaCl, 0.03% potassium sarkosylate and 0.1 mM EDTA; total strand concentration=2.4 micromolar. The resulting solutions were heated to 70° C. and slowly cooled to 4° C. over a time period of approximately 4-6 hours. […] The binding constants at 37° C.

[2] = Stability to nuclease digestion in 10% fetal calf serum (Example 38); format: in vitro ADME; details: pH 8.0, 37° C., 50% full length oligomer digested, first three time points
Experimental: Multiple samples of each chimeric oligomer were prepared in 1.5 mL polypropylene microcentrifuge tubes on ice. Each sample contained oligomer (0.1 OD260 unit), 10% fetal calf serum (FCS, Gemini Bioproducts, Calabasas, Calif.), 20 mM HEPES (pH 8.0), 0.2% paramethylsulfonyl fluoride (PMSF), 175 mM KCl, 0.1 mM dithiothreitol, 0.1 mM EDTA, 2 mM MgCl2 and 4% glycerol--total volume=100 μL. The samples were incubated at 37° C. for specified time periods and then diluted with 0.4% NP-40/acetonitrile (35 μL), quickly frozen on dry ice and stored at -20° C. Samples were then individually thawed, diluted with water (635 μL) and analyzed immediately by reversed-phase HPLC according to the method given in the preceding example (except that a 2 mL sample loop was used to load the samples onto the column). Results are shown in tabular format below, and in graphical format in FIG. 2.

S1-endonuclease = experiment: Stability to nuclease digestion by S1-endonuclease (Example 37); format: in vitro ADME; details: S1-endonuclease 0.5 units/mL, pH 5.0, 37° C.; 50% full length oligomer digested
Experimental: The following oligomers were tested for nuclease stability in the presence of S1-endonuclease.
S1-endonuclease was purchased from Promega Corp. (Catalog #E576B, Madison, Wis.). Aliquots of each chimeric oligomer (0.05-0.075 OD260 units) were individually added to polypropylene microcentrifuge tubes containing S1-endonuclease (0.5 units/mL) in 30 mM sodium acetate (pH 5.0), 50 mM NaCl, 1.0 mM zinc acetate and 5% glycerol; total reaction volume=10 μL. These tubes were incubated at 37° C. for specified time periods, quickly frozen in dry ice and then stored in a freezer at -20° C. […] Column=Vydac Protein C4 (catalog #214TP54, 4.9 mm i.d.×250 mm long). Buffer A=50 mM triethylammonium acetate (pH 7)/1% acetonitrile; Buffer B=50 mM triethylammonium acetate (pH 7)/50% acetonitrile. […] The samples were diluted with water (50 μL) and injected onto the column using a 100 μL sample loop. Peaks corresponding to full length oligomer and its degradation products were detected by monitoring at 260 nm. The amount of degradation occurring in each reaction was determined by measuring the reduction in peak area for the full-length oligomer (identified by comparison to an external control and/or by coinjecting undigested oligomer as an internal control). The data is shown in tabular format below, and in graphic format in FIG. 1.

[3] = system: complementary RNA targets; experiment: Tm of Rp-enriched versus racemic methylphosphonate oligomers with RNA (Example 33); format: binding; details: for Tm: 2.4 μM total strand concentration, pH 7.2, 100 mM sodium chloride
pG1035 (SplicerCAT) = experiment: Inhibition of CAT expression, splicing target pG1035 (SplicerCAT), in COS-7 cells; format: cell-based, African Green Monkey; details: 1.0 μM oligomer; ± std error; normalized to protein and luciferase; chimeric oligomers also normalized to pG1036
Experimental: COS-7 cells were transiently transfected with plasmids encoding either a target reporter gene or a control non-target reporter gene. These cells were then treated with various chimeric antisense or control oligomers and then assayed for the expression of the reporter genes.
pG1035: Splicer CAT, inserted into a pRc/CMV vector
COS 7 cells were plated at 1.5×10^5 cells/well in a 12 well plate format on the day before transfections began. All cultures were maintained at 37° C. On the next day, the transfection mixes were prepared. For each well of a 12 well plate, 1.0 μM oligomer was combined with 1 μg pGL2 or pSVβ+1 μg of the target CAT plasmid in 0.5 ml of Optimem (Gibco/BRL) and 18.75 μg Transfectam (for chimeric oligomers, Promega) or Lipofectamine (for all PS oligomers, Promega) also in 0.5 ml of Optimem. These quantities gave a 6.9 or 4.5 or 2.0 to 1 cationic lipid to oligomer plus DNA ratio, respectively, in one milliliter total. pGL2 and pSVβ served as transfection and oligomer specificity controls. […]
The cell lysates were then assayed for CAT, and luciferase or […] activity, and the total protein concentration was determined as described below. […]
[…] of reaction mixture was then added to each tube, which was then incubated for, typically, approximately 1 hour in a 37° C. oven. […] The sample was then counted in a Packard scintillation counter.
This assay was performed generally as follows according to standard procedures. 20 μof lysate was combined with 100 μl of luciferase assay reagent (Promega) and counted in a scintillation counter (Packard) within 20 seconds (as recommended by Promega). […]
Six μl of lysate per well was added, followed by 300 μl Coomassie Protein Assay Reagent (Pierce) per well. The individual sample plates were then read at A570 on a microplate reader (Molecular Devices). […]
Oligomers were transfected into COS-7 cells and lysates were made and assayed as described previously. […] N.D.=not determined. […]

[4] = system: endogenous eukaryotic RNaseH derived from HeLa cell nuclear extracts; format: biochemical; details: 10 μM oligomer, 1 μM RNA target

2687-1: 5'-GTCTTCCA(TGCAT)GTTGTCC-3' [75% MP(Rp)][DE][75% MP(Rp)] [Oligomer 2687-1]
Tm [1]: 52.8 °C | KA (37° C.) [1]: 2.6 × 10^9

2681-1: 5'-GTCTTCCA(TGCAT)GTTGTCC-3' [MP][PS/DE][MP] [Oligomer 2681-1]
Tm [1]: 44.1 °C | KA (37° C.) [1]: 2.1 × 10^7 | Half-Life for Degradation [2]: 8.1 h | Half-Life for Degradation (S1-endonuclease): 12.2 h

2571-1: 5'-(G*T)(C*T)(T*C)(C*A)(T*G)(C*A)(T*G)(T*T)(G*T)-C-3', 75% MP(Rp) [Oligomer 2571-1]
Tm [3]: 46.3 °C | ΔTm ([3]; Rp-enriched versus racemic oligomer of the pair): 8.2 °C

2688-1: 5'-ATG-GTG-TCT-GTT-TGA-GGT-T-3', racemic methylphosphonate (ATGGTGTCTGTTTGAGGTT; all [mp], sugars by position and methylation of C not given here) [Oligomer 2688-1]
Tm [3]: 40.0 °C

XV-7: 24mer, all phosphorothioate: 5' ccc tga gag aga gag aga ggt tcg 3' (CCCTGAGAGAGAGAGAGAGGTTCG; all phosphorothioate, sugars by position and methylation of C not given here)
percent inhibition of CAT expression, pG1035 = splicing (pG1035 (SplicerCAT)): 17 ± 6%

1634-1: 5'-TAG-CTT-CCT-TAG-CTC-CTG-3', racemic methylphosphonate (TAGCTTCCTTAGCTCCTG; all [mp], sugars by position and methylation of C not given here) [Oligomer 1634-1]
Tm [3]: 38.2 °C

2624-1: 3'-CTGTTG TACGT ACCTTCTG-5' Racemic MP (CTGTTGTACGTACCTTCTG; racemic methylphosphonate, chemistry not fully specified; listed 3' to 5') [Oligomer 2624-1]
Tm [3]: 38.6 °C

2253-1: 5'-AGA-GAG-AGA-GAG-AG-T-3', racemic methylphosphonate (AGAGAGAGAGAGAGT; all [mp], sugars by position not given here) [Oligomer 2253-1]
Tm [3]: 48.9 °C

2517-1: 5'-GTG-TGT-GTG-TGT-GTG-TA-3'-3', racemic methylphosphonate (GTGTGTGTGTGTGTGTA; all [mp], sugars by position not given here; further chemistry not fully specified) [Oligomer 2517-1]
Tm [3]: 41.0 °C

3257-1: 5'-GTCTTC(CATGCAT)GTTGTCC-3' [MP(Rp)/DE][PS/DE][MP(Rp)/DE] [Oligomer 3257-1]
Tm [1]: 60.9 °C | KA (37° C.) [1]: 2.1 × 10^14

3256-1: 5'-GTCTTCCA(TGCAT)GTTGTCC-3' [MP(Rp)/DE][PS][MP(Rp)/DE] [Oligomer 3256-1]
Tm [1]: 60.1 °C | KA (37° C.) [1]: 5.5 × 10^13 | RNaseH Cleavage after 2 Hrs. at 37° C. [4]: 18.7% | Half-Life for Degradation [2]: 16.2 h | Half-Life for Degradation (S1-endonuclease): 12.5 h

3214-1: 5'-GTCTTCCA(TGCAT)GTTGTCC-3' [MP(Rp)/DE][PS/DE][MP(Rp)/DE] [Oligomer 3214-1]
Tm [1]: 61.0 °C | KA (37° C.) [1]: 2.3 × 10^14 | RNaseH Cleavage after 2 Hrs. at 37° C. [4]: 38.0% | Half-Life for Degradation [2]: 4.3 h | Half-Life for Degradation (S1-endonuclease): 5.0 h
